These are literature values, as cited in patent US9107941B2, “Methods and compositions for reducing L-pipecolic acid effects in animals” (SarTec Corporation, priority 2006, dated 2015).

The test system of one data set is chicks. Particulars: ICV injection.

`O=C(O)[C@@H]1CCCCN1` [L-PIP, L-pipecolic acid]: in the data set with chicks, the food intake result is “inhibited food intake” and the sleep-like behavior result is “induced sleep-like behavior”. Besides, in the data set with neuronal cells, the “apoptosis in neuronal cells” value is on record as “induce apoptosis”.
